Source: publication PMC6009956, “Design, synthesis and biological activity of N^4-phenylsubstituted-7H-pyrrolo[2,3-d]pyrimidin-4-amines as dual inhibitors of aurora kinase A and epidermal growth factor receptor kinase” (Journal of Enzyme Inhibition and Medicinal Chemistry, 2017)
Like-named read-outs stand apart in the source and are kept apart here.

What was measured:
aurora A kinase (AURKA) = target: T1, aurora A kinase (AURKA) (Homo sapiens, UniProt O14965); test: ADP-Glo kinase assay, Aurora A; assay type: biochemical
T1 construct: purchased BPS Bioscience (assay run externally by the vendor)
T1 sequence (O14965 1-403): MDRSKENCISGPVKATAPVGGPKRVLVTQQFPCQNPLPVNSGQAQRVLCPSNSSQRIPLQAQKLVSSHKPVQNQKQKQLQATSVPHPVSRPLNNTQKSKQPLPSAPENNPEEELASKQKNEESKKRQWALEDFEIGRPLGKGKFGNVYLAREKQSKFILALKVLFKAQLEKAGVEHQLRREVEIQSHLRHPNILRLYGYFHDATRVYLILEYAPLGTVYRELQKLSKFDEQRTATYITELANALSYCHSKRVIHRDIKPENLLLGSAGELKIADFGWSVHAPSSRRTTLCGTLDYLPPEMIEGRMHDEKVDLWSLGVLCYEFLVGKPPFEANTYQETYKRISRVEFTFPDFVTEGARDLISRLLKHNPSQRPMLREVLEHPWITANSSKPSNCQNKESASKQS

EGFR = EGFR (Homo sapiens, UniProt P00533); test: ADP-Glo kinase assay, EGFR; assay type: biochemical; parameters: purchased BPS Bioscience (assay run externally by the vendor)
Chain of EGFR (P00533 25-1210): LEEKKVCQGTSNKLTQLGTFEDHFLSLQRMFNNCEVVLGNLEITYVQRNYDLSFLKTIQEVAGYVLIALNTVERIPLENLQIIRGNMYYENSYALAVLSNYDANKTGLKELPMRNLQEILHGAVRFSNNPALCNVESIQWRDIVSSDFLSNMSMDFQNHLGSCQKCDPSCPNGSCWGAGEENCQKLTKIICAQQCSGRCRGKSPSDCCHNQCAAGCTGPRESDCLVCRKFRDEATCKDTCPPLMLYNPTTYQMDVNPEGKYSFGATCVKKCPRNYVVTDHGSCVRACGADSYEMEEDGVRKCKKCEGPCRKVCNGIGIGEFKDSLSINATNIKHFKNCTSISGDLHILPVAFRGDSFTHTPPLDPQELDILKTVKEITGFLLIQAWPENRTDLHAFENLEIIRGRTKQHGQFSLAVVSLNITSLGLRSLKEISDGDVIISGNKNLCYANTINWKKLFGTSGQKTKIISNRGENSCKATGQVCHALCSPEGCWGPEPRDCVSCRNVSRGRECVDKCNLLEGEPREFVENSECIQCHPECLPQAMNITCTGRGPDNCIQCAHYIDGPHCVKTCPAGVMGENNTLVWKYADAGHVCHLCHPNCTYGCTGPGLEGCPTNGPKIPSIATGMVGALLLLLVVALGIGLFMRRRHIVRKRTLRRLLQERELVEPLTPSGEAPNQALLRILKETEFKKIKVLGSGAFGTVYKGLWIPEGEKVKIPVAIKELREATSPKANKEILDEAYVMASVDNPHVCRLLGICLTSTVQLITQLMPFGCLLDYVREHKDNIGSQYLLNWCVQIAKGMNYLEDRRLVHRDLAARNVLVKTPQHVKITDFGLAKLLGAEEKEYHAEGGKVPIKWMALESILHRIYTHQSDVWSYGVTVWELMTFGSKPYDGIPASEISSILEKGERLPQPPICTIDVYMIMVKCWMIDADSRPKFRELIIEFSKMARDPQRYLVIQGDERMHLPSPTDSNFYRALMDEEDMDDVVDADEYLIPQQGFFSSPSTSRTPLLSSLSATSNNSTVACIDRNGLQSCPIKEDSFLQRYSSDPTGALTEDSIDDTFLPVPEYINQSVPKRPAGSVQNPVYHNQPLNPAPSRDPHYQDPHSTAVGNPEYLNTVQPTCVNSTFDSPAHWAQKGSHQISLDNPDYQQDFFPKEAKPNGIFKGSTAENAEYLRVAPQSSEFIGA

c1ccc(Oc2ccc(Nc3ncnc4[nH]ccc34)cc2)cc1 [Compound 17, N^4-(4-phenoxyphenyl)-7H-pyrrolo[2,3-d]pyrimidin-4-amine]
IC50 (aurora A kinase (AURKA); 10 µM ATP, triplicate, read-out: AURKA IC50 ± SD): 13.3 ± 3.57 µM
IC50 (aurora A kinase (AURKA); 10 µM ATP/0.2 mg/ml Kemptide, read-out: Aurora A IC50 (dose-response curve, supplement)): 12.9 µM
Aurora A % Activity Set1 (aurora A kinase (AURKA); Log[nM] 0): 100%
Aurora A % Activity Set2 (aurora A kinase (AURKA); Log[nM] 0): 94%
Aurora A % Activity Set3 (aurora A kinase (AURKA); Log[nM] 0): 93%
Aurora A % Activity Set1 (aurora A kinase (AURKA); Log[nM] 1.0): 97%
Aurora A % Activity Set2 (aurora A kinase (AURKA); Log[nM] 1.0): 97%
Aurora A % Activity Set3 (aurora A kinase (AURKA); Log[nM] 1.0): 97%
Aurora A % Activity Set1 (aurora A kinase (AURKA); Log[nM] 1.5): 103%
Aurora A % Activity Set2 (aurora A kinase (AURKA); Log[nM] 1.5): 99%
Aurora A % Activity Set3 (aurora A kinase (AURKA); Log[nM] 1.5): 106%
Aurora A % Activity Set1 (aurora A kinase (AURKA); Log[nM] 2.0): 97%
Aurora A % Activity Set2 (aurora A kinase (AURKA); Log[nM] 2.0): 100%
Aurora A % Activity Set3 (aurora A kinase (AURKA); Log[nM] 2.0): 98%
Aurora A % Activity Set1 (aurora A kinase (AURKA); Log[nM] 2.5): 102%
Aurora A % Activity Set2 (aurora A kinase (AURKA); Log[nM] 2.5): 96%
Aurora A % Activity Set3 (aurora A kinase (AURKA); Log[nM] 2.5): 95%
Aurora A % Activity Set1 (aurora A kinase (AURKA); Log[nM] 3.0): 77%
Aurora A % Activity Set2 (aurora A kinase (AURKA); Log[nM] 3.0): 81%
Aurora A % Activity Set3 (aurora A kinase (AURKA); Log[nM] 3.0): 79%
Aurora A % Activity Set1 (aurora A kinase (AURKA); Log[nM] 3.5): 65%
Aurora A % Activity Set2 (aurora A kinase (AURKA); Log[nM] 3.5): 63%
Aurora A % Activity Set3 (aurora A kinase (AURKA); Log[nM] 3.5): 63%
Aurora A % Activity Set1 (aurora A kinase (AURKA); Log[nM] 4.0): 46%
Aurora A % Activity Set2 (aurora A kinase (AURKA); Log[nM] 4.0): 42%
Aurora A % Activity Set3 (aurora A kinase (AURKA); Log[nM] 4.0): 44%
Aurora A % Activity Set1 (aurora A kinase (AURKA); Log[nM] 4.5): 41%
Aurora A % Activity Set2 (aurora A kinase (AURKA); Log[nM] 4.5): 39%
Aurora A % Activity Set3 (aurora A kinase (AURKA); Log[nM] 4.5): 39%
Aurora A % Activity Set1 (aurora A kinase (AURKA); Log[nM] 5.0): 34%
Aurora A % Activity Set2 (aurora A kinase (AURKA); Log[nM] 5.0): 34%
Aurora A % Activity Set3 (aurora A kinase (AURKA); Log[nM] 5.0): 32%
IC50 (EGFR; 10 µM ATP, triplicate, read-out: EGFR IC50 ± SD): 0.111 ± 0.0151 µM
IC50 (EGFR; 10 µM ATP/0.2 mg/ml Poly-Glu-Tyr, read-out: EGFR IC50 (dose-response curve, supplement)): 0.11 µM
EGFR % Activity Set1 (EGFR; Log[nM] 0): 93%
EGFR % Activity Set2 (EGFR; Log[nM] 0): 101%
EGFR % Activity Set3 (EGFR; Log[nM] 0): 99%
EGFR % Activity Set1 (EGFR; Log[nM] 1.0): 90%
EGFR % Activity Set2 (EGFR; Log[nM] 1.0): 91%
EGFR % Activity Set3 (EGFR; Log[nM] 1.0): 97%
EGFR % Activity Set1 (EGFR; Log[nM] 1.5): 72%
EGFR % Activity Set2 (EGFR; Log[nM] 1.5): 77%
EGFR % Activity Set3 (EGFR; Log[nM] 1.5): 83%
EGFR % Activity Set1 (EGFR; Log[nM] 2.0): 49%
EGFR % Activity Set2 (EGFR; Log[nM] 2.0): 51%
EGFR % Activity Set3 (EGFR; Log[nM] 2.0): 55%
EGFR % Activity Set1 (EGFR; Log[nM] 2.5): 24%
EGFR % Activity Set2 (EGFR; Log[nM] 2.5): 23%
EGFR % Activity Set3 (EGFR; Log[nM] 2.5): 29%
EGFR % Activity Set1 (EGFR; Log[nM] 3.0): 11%
EGFR % Activity Set2 (EGFR; Log[nM] 3.0): 10%
EGFR % Activity Set3 (EGFR; Log[nM] 3.0): 12%
EGFR % Activity Set1 (EGFR; Log[nM] 3.5): 5%
EGFR % Activity Set2 (EGFR; Log[nM] 3.5): 5%
EGFR % Activity Set3 (EGFR; Log[nM] 3.5): 5%
EGFR % Activity Set1 (EGFR; Log[nM] 4.0): 4%
EGFR % Activity Set2 (EGFR; Log[nM] 4.0): 4%
EGFR % Activity Set3 (EGFR; Log[nM] 4.0): 5%
EGFR % Activity Set1 (EGFR; Log[nM] 4.5): 5%
EGFR % Activity Set2 (EGFR; Log[nM] 4.5): 5%
EGFR % Activity Set3 (EGFR; Log[nM] 4.5): 5%
EGFR % Activity Set1 (EGFR; Log[nM] 5.0): 4%
EGFR % Activity Set2 (EGFR; Log[nM] 5.0): 4%
EGFR % Activity Set3 (EGFR; Log[nM] 5.0): 4%
